{
  "source": "patent US10828275B2",
  "about": "“Selective targeting of procoagulant platelets” (NewSouth Innovations Pty Limited, priority 2014, dated 2020)",
  "key": {"[1]": {"system": "agonist stimulated platelets", "assay": "Platelet procoagulant potential, Calibrated Automated Thrombogram", "assay_type": "cell-based, human", "conditions": "100 mg aspirin daily for 7 days; thrombin and collagen", "experimental": "FIG. 5. […] A. Washed human platelets were untreated or stimulated with thrombin (0.1 units/mL) and collagen (5 μg/mL) or the mitochondrial membrane disrupter CCCP (4 μM). Mitochondrial transmembrane potential was measured using the cationic dye, JC-1. The ratio of distribution of JC-1 between the mitochondria (red fluorescence) and cytosol (green fluorescence) reflects mitochondrial transmembrane potential. […] B-C. […] E. Washed human platelets were preincubated with CaCl2 for 15 min and then untreated or stimulated with thrombin (0.1 units/mL) and collagen (5 μg/mL).\nFIG. 8. […] Platelets from healthy volunteers were examined before and after 7 days of aspirin ingestion. Washed platelets were activated with thrombin (0.1 units/mL) and collagen (5 μg/mL) and GSAO+/P-selectin+ necrotic platelets measured by flow cytometry (part A) and procoagulant potential assessed using the Calibrated Automated Thrombogram (part B).\nThrombin generation capacity of agonist stimulated platelets was measured using the Calibrated Automated Thrombogram as described (Hemker et al., 2003) using the Fluorskan Ascent (Thermo Scientific). Agonist stimulated platelets were washed in phosphate-buffered saline and resuspended into the donor's own platelet poor plasma at 5×10^4/μL and recombinant tissue factor ([…], Innovin, Dade Behring) was added. Assays were performed in triplicate."}, "[2]": {"system": "washed platelets from healthy volunteers", "assay": "Aspirin study: GSAO+/P-selectin+ necrotic platelets ex vivo (flow cytometry)", "assay_type": "cell-based, human", "conditions": "100 mg aspirin daily for 7 days; thrombin and collagen", "experimental": "FIG. 8. Aspirin ingestion sensitizes platelets to cyclophilin D inhibition in human subjects. Platelets from healthy volunteers were examined before and after 7 days of aspirin ingestion. Washed platelets were activated with thrombin (0.1 units/mL) and collagen (5 μg/mL) and GSAO+/P-selectin+ necrotic platelets measured by flow cytometry (part A) and procoagulant potential assessed using the Calibrated Automated Thrombogram (part B).\nThe standard pharmacological means for prevention of cardiovascular events is by inhibiting platelet cyclooxygenase-1 with aspirin, which suppresses platelet activation.\nThis study was approved by the University of New South Wales Human Research Ethics Advisory Committee (HC132219), conducted according to the Declaration of Helsinki and all volunteers gave written informed consent. Five healthy volunteers aged 25-45 years were recruited. Prior to starting the study, all volunteers abstained from aspirin or non-steroidal anti-inflammatory drugs (NSAIDS), or other anti-platelet therapies for 14 days. Volunteers received 100 mg enteric coated aspirin daily for 7 days. Blood was collected and washed platelets assessed at baseline, day 0, and again at day 7 of treatment."}, "[3]": {"system": "platelets of coronary artery disease patients", "assay": "Whole blood platelet necrosis assay in coronary artery disease patients", "assay_type": "in vivo, human", "conditions": "thrombin or thrombin/collagen stimulation", "text": "The whole blood platelet necrosis assay was validated by measuring formation of procoagulant platelets in response to well-known agonist in humans and mice. The assay was able to reproducibly measure platelet propensity to necrosis in healthy human volunteers as well as in patients with ischaemic heart disease within a clinical setting.\nExperiments using genetically modified mice indicate that formation of procoagulant platelets is dependent on the cyclophilin D necrosis pathway, but independent of the BclXL apoptosis pathway. In healthy volunteers, the strong platelet agonists, thrombin and collagen, induce formation of procoagulant platelets via a mechanism that is largely independent of protease activated receptors. Patients with coronary artery disease have a heightened procoagulant platelet potential and are sensitised to thrombin and ADP stimulation. The procoagulant platelet potential in these patients is insensitive to aspirin, which targets platelet aggregation, but modified by P2Y12 antagonists.\nTo examine the effect of CAD on procoagulant platelet potential, non-heparinized bloods from patients with exposure to either aspirin only or no antiplatelet medications within 7 days of the procedure were assayed. […] There were no statistically significant differences between the groups in the absence of agonist stimulation."}},
  "note": "“Also recorded” adds a separate entry of the source.",
  "data": [
    {"smiles": "CC(=O)Oc1ccccc1C(=O)O", "note": "[aspirin]", "values": [
      {"measurement": "change in procoagulant potential of activated platelets", "setting": "[1]", "result": "no change"},
      {"measurement": "change in GSAO+/P-selectin+ necrotic potential of activated platelets", "setting": "[2]", "result": "no change"},
      {"measurement": "effect on necrotic / procoagulant platelet potential in patients", "setting": "[3]", "result": "did not affect; also recorded: insensitive"}
    ]}
  ]
}
